Source: BindingDB's records for doi:10.1016/s0960-894x(98)00264-9 (Royal Danish School of Pharmacy, 1999)

Key:
[1] = Compound was evaluated for agonistic activity against mGluR2 alpha metabotropic receptor subtype in rat cortical slice model
[2] = Compound was evaluated for agonistic activity against mGluR4a alpha metabotropic receptor subtype in rat cortical slice model

| Structure (SMILES) | EC50 [1] [µM] | EC50 [2] [µM] |
| --- | --- | --- |
| CCNC(C(=O)O)c1cc(=O)[nH]o1 (stereo unspecified) [Ethylamino-(3-hydroxy-isoxazol-5-yl)-acetic acid] | > 1000 | > 1000 |
| CNC(C(=O)O)c1cc(=O)[nH]o1 (stereo unspecified) [(3-Hydroxy-isoxazol-5-yl)-methylamino-acetic acid] | > 1000 | > 1000 |
| O=C(O)C(NCc1ccccc1)c1cc(=O)[nH]o1 (stereo unspecified) [Benzylamino-(3-hydroxy-isoxazol-5-yl)-acetic acid] | > 1000 | > 1000 |
